Experiments:
MMP-9 = MMP-9 (Homo sapiens, UniProt P14780); assay: K(obs) of individual phage substrates (set of 1369); format: biochemical; conditions: MMP9
MMP-2 [1] = target: T1, MMP-2 (Homo sapiens, UniProt P08253); assay: as above; format: biochemical; conditions: MMP2
T1 sequence (P08253 110-660): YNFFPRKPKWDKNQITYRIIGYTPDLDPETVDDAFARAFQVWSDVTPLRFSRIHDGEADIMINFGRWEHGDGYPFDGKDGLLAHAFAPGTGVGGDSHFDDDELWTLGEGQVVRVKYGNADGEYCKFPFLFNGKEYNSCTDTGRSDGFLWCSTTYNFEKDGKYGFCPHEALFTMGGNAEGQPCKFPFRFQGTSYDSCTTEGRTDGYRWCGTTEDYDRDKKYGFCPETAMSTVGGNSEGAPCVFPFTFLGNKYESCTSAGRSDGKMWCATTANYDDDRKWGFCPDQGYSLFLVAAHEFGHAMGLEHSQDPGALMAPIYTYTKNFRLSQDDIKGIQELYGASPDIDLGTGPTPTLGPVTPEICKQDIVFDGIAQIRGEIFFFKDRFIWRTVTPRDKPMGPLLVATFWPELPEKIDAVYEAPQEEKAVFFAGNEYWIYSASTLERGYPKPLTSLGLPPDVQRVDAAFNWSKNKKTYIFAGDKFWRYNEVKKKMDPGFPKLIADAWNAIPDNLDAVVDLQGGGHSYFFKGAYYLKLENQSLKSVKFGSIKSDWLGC

MMP-2 [2] = assay: Substrate phage display with NGS: relative probability (RP) of P3-P1' tetramer clusters; format: biochemical, human; conditions: MMP2;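 further: ratio of tetramer probability after protease selection to that in naive phage library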
[3] = individual phage substrate of the set of 1369 peptides, dash in the sequence marks the cleavage position
[4] = individual phage substrate of the set of 1369 peptides, cleavage position marked by '-'
[5] = RP of the P3-P1' tetramer contained in the substrate
[6] = individual phage substrates, set of 1369 peptides, hyphen in sequence marks cleavage position
[7] = individual phage substrates, set of 1369 peptides, cleavage position marked by hyphen in sequence
[8] = RP of the P3-P1' tetramer contained in the substrate (substrate phage display with NGS)

MMP-9, sequence (P14780 94-707): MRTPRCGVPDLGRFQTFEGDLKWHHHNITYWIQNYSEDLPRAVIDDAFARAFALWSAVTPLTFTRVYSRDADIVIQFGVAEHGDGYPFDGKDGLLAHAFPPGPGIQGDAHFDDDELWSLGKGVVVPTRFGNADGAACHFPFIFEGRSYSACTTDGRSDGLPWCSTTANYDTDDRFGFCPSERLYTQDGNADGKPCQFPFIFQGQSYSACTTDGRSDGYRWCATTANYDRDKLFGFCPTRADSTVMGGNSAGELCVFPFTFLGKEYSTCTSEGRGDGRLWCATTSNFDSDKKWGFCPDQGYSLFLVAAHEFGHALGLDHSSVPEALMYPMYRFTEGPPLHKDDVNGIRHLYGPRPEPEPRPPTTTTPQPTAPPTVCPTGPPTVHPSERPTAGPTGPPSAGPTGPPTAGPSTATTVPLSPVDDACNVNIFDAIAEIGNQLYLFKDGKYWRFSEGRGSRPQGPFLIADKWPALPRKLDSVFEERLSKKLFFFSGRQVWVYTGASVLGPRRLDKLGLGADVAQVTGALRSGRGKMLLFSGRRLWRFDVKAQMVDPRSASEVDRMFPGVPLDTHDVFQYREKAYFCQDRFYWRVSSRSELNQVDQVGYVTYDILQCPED

Substance | Kobs (MMP-9; [3]) | Kobs (MMP-2 [1]; [4]) | relative probability (RP) (MMP-2 [2]; [5]) | Kobs (MMP-9; [6]) | Kobs (MMP-2 [1]; [7]) | relative probability (RP) (MMP-2 [2]; [8])
VIYGN-LTASG | 0 M⁻¹ s⁻¹ | 8941.32 M⁻¹ s⁻¹ | 24.0019 | – | – | –
VKAYN-LTASG | – | – | – | 9740.44 M⁻¹ s⁻¹ | 8941.32 M⁻¹ s⁻¹ | 20.8713
VKPWA-LTASG | 10866.7 M⁻¹ s⁻¹ | 5667.28 M⁻¹ s⁻¹ | 31.9211 | – | – | –
VKVFS-MTASG | – | – | – | 4470.66 M⁻¹ s⁻¹ | 912.511 M⁻¹ s⁻¹ | 2.265
VLPEP-LTASG | 6396.07 M⁻¹ s⁻¹ | 8941.32 M⁻¹ s⁻¹ | 26.8179 | – | – | –
VLPRS-WTASG | – | – | – | 5889.62 M⁻¹ s⁻¹ | 8321.48 M⁻¹ s⁻¹ | 32.796
VLWAG-LTASG | – | – | – | 3344.37 M⁻¹ s⁻¹ | 12792.1 M⁻¹ s⁻¹ | 28.1709
VLWRA-LTASG | 12792.1 M⁻¹ s⁻¹ | 12792.1 M⁻¹ s⁻¹ | 22.4074 | – | – | –
VMLRF-LTASG | 8321.48 M⁻¹ s⁻¹ | 12792.1 M⁻¹ s⁻¹ | 10.7085 | – | – | –
VMVWN-ITASG | – | – | – | 8321.48 M⁻¹ s⁻¹ | 2761.81 M⁻¹ s⁻¹ | 4.0144
VMYGN-LTASG | – | – | – | 619.843 M⁻¹ s⁻¹ | 12792.1 M⁻¹ s⁻¹ | 24.0019
VNARM-LTASG | – | – | – | 2218.08 M⁻¹ s⁻¹ | 1196.62 M⁻¹ s⁻¹ | 2.9901
VPPEA-ITASG | – | – | – | 12792.1 M⁻¹ s⁻¹ | 12792.1 M⁻¹ s⁻¹ | 22.5231
VPPRV-LTASG | 2687.73 M⁻¹ s⁻¹ | 799.117 M⁻¹ s⁻¹ | 13.9079 | – | – | –
VPWGN-LTASG | – | – | – | 0 M⁻¹ s⁻¹ | 5461.43 M⁻¹ s⁻¹ | 14.7295
VQQQG-LTASG | 231.616 M⁻¹ s⁻¹ | 3741.87 M⁻¹ s⁻¹ | 6.401 | – | – | –
VRAHS-LTASG | – | – | – | 4922.1 M⁻¹ s⁻¹ | 4205.91 M⁻¹ s⁻¹ | 21.0212
VRLNY-LTASG | – | – | – | 0 M⁻¹ s⁻¹ | 4763.33 M⁻¹ s⁻¹ | 12.3459
VRPRP-FTASG | 10866.7 M⁻¹ s⁻¹ | 12792.1 M⁻¹ s⁻¹ | 32.5323 | – | – | –
VRVLH-LTASG | – | – | – | 8321.48 M⁻¹ s⁻¹ | 8321.48 M⁻¹ s⁻¹ | 19.5348
VRWSW-LTASG | 0 M⁻¹ s⁻¹ | 2038.8 M⁻¹ s⁻¹ | 7.878 | – | – | –
VSLAY-LTASG | – | – | – | 113.394 M⁻¹ s⁻¹ | 12792.1 M⁻¹ s⁻¹ | 25.3422
VSSYW-LTASG | – | – | – | 1981.53 M⁻¹ s⁻¹ | 951.362 M⁻¹ s⁻¹ | 0.9791
VVLMG-LTASG | 323.705 M⁻¹ s⁻¹ | 1925.41 M⁻¹ s⁻¹ | 28.5499 | – | – | –
VVYRG-LTASG | – | – | – | 2476.66 M⁻¹ s⁻¹ | 2761.81 M⁻¹ s⁻¹ | 5.445
VYWGN-MTASG | – | – | – | 27.918 M⁻¹ s⁻¹ | 4082.43 M⁻¹ s⁻¹ | 3.723

Substance | Kobs (MMP-9; [3]) | Kobs (MMP-2 [1]; [4]) | relative probability (RP) (MMP-2 [2]; [5]) | Kobs (MMP-9; [6]) | Kobs (MMP-2 [1]; [7]) | relative probability (RP) (MMP-2 [2]; [8])
WDALG-ITASG | 2097.28 M⁻¹ s⁻¹ | 3850.82 M⁻¹ s⁻¹ | 18.2164 | – | – | –
WHPVS-LTASG | 12792.1 M⁻¹ s⁻¹ | 12792.1 M⁻¹ s⁻¹ | 32.502 | – | – | –
WKVSS-LTASG | – | – | – | 2218.08 M⁻¹ s⁻¹ | 10866.7 M⁻¹ s⁻¹ | 29.0891
WLPRA-VTASG | 12792.1 M⁻¹ s⁻¹ | 12792.1 M⁻¹ s⁻¹ | 28.3444 | – | – | –
WMPLG-MTASG | 12792.1 M⁻¹ s⁻¹ | 5461.43 M⁻¹ s⁻¹ | 34.1118 | – | – | –
WPHGS-LTASG | 0 M⁻¹ s⁻¹ | 12792.1 M⁻¹ s⁻¹ | 19.9233 | – | – | –
WPMAK-LTASG | 451.441 M⁻¹ s⁻¹ | 12792.1 M⁻¹ s⁻¹ | 21.5229 | – | – | –
WQYSN-LTASG | – | – | – | 323.705 M⁻¹ s⁻¹ | 3964.21 M⁻¹ s⁻¹ | 25.2832
WRYSN-LTASG | – | – | – | 0 M⁻¹ s⁻¹ | 8941.32 M⁻¹ s⁻¹ | 25.2832
WVMES-LTASG | 386.839 M⁻¹ s⁻¹ | 1660.66 M⁻¹ s⁻¹ | 8.775 | – | – | –
YCSLP-LTASG | – | – | – | 113.394 M⁻¹ s⁻¹ | 451.441 M⁻¹ s⁻¹ | 8.6373
YDIHF-LTASG | 0 M⁻¹ s⁻¹ | 0 M⁻¹ s⁻¹ | 4.537 | – | – | –
YDISA-LTASG | 113.394 M⁻¹ s⁻¹ | 12792.1 M⁻¹ s⁻¹ | 31.8319 | – | – | –
YDSRG-LTASG | 231.616 M⁻¹ s⁻¹ | 1239.69 M⁻¹ s⁻¹ | 6.164 | – | – | –
YDTQH-LTASG | – | – | – | 0 M⁻¹ s⁻¹ | 0 M⁻¹ s⁻¹ | 2.922
YDVYN-LTASG | 7815.03 M⁻¹ s⁻¹ | 3253.29 M⁻¹ s⁻¹ | 19.1818 | – | – | –
YEPRN-VTASG | – | – | – | 10866.7 M⁻¹ s⁻¹ | 12792.1 M⁻¹ s⁻¹ | 26.6015
YKPAG-LTASG | – | – | – | 12792.1 M⁻¹ s⁻¹ | 10866.7 M⁻¹ s⁻¹ | 36.0156
YLVRY-LTASG | – | – | – | 12792.1 M⁻¹ s⁻¹ | 9740.44 M⁻¹ s⁻¹ | 18.3724
YNWRH-LTASG | – | – | – | 619.843 M⁻¹ s⁻¹ | 799.117 M⁻¹ s⁻¹ | 0.4087
YPFGS-LTASG | 355.093 M⁻¹ s⁻¹ | 12792.1 M⁻¹ s⁻¹ | 21.9152 | – | – | –
YSATN-LTASG | – | – | – | 484.315 M⁻¹ s⁻¹ | 12792.1 M⁻¹ s⁻¹ | 16.0897
YSPMD-YTASG | 12792.1 M⁻¹ s⁻¹ | 1660.66 M⁻¹ s⁻¹ | 10.9087 | – | – | –
YVPTG-LTASG | 4763.33 M⁻¹ s⁻¹ | 5461.43 M⁻¹ s⁻¹ | 33.1098 | – | – | –
YYPRA-LTASG | 12792.1 M⁻¹ s⁻¹ | 12792.1 M⁻¹ s⁻¹ | 35.2345 | – | – | –

Reference: PMC7932537, “Quantitative profiling of protease specificity” (PLoS Computational Biology, 2021)
